Measured values reported in paper PMC8147462, “Daldiniaeschsone A, a Rare Tricyclic Polyketide Having a Chromone Unit Fused to a δ-Lactone and Its Symmetrical Biphenyl Dimer, Daldiniaeschsone B, from an Endophytic Fungus Daldinia eschscholtzii SDBR-CMUNKC745” (Journal of Fungi, 2021).
“Also recorded” adds a separate entry of the source. Read-outs that look alike come from different tables or passages of the source.

Assays:
α-glucosidase = molecular target: T1, α-glucosidase (Saccharomyces cerevisiae, UniProt P53341); experiment: biochemical; conditions: for inhibition at 200 µg/mL: read-out: α-Glucosidase Inhibitory Activity % Inhibition at 200 µg/mL
T1 construct: purchased Sigma, St. Louis, MO, USA G5003
Experimental: A colorimetric α-glucosidase assay was carried out by the previously described procedure. Briefly, the sample solution was dissolved in DMSO after the solutions were diluted with a phosphate buffer (100 mM KH2PO4, pH 6.9) become DMSO (10%, v/v) concentration. The substrate, p-nitrophenyl α-D-glucoside (Sigma, St. Louis, USA, CAS No. N1377), (c 1.5 mM), was prepared by dissolving with phosphate buffer. The tested samples (50 uL) were combined with 100 μL of the α-glucosidase enzyme solution (0.35 U/mL, Sigma, St. Louis, MO, USA, CAS. No. G5003), then the mixture was pre-incubated for 10 min at 37 °C. The enzymatic reaction was started by applying substrate (100 μL, c 1.5 mM) into the mixture and incubated at 37 °C for 20 min. The reaction was subsequently terminated by the addition of Na2CO3 (1 mL, c 1 M). The absorption was immediately measured at 405 nm by determining the quantity of p-nitrophenol released from the substrate.

[1] = test system: NO production in RAW 264.7 cells; experiment: nitric oxide (NO) production inhibitory activity in LPS-treated RAW 264.7 cells (Griess reaction); format: cell-based; conditions: for inhibition at 50 µg/mL: read-out: Anti-Inflammatory (NO Production Inhibitory Activity) % Inhibition at 50 µg/mL; for NO production inhibitory activity (in words): RAW 264.7 macrophage cells
Experimental: The NO inhibitory activity was performed using the same procedure as previously reported. RAW 264.7 (American Type Culture Collection, Manassas, VA, USA) were seeded at 4 × 10^4 cells/well in 96 well plates suspended in 100 μL DMEM supplemented with 10% FBS and incubated at 37 °C 5% CO2 overnight. Cells were incubated with 1 µg/mL LPS for 1 h and treated with various concentrations of sample compounds and vehicle control (DMSO) for 24 h. After 24 h, the NO production inhibitory was determined in the culture supernatant using the Griess reaction by adding 100 µL of Griess reagent in a 96 well plate for 10 min. The determination of nitric oxide was measured at 570 nm with Biochrom EZ Read 400 ELISA microplate reader (Biochrom Ltd., Cambridge, United Kingdom). Additionally, the data were presented as IC50 which was calculated with GraphPad Prism 6.0 software.

[2] = cytotoxicity / cell viability MTT assay; format: cell-based; conditions: mouse, RAW 264.7 cells, RAW 264.7, 24 h
Experimental: (§1) Cell viability studies were evaluated by the MTT (3-[4,5-dimethylthiazol-2-yl]-2,5-diphenyl tetrazolium bromide) assay. In brief, RAW 264.7 cells (5 × 10^4 cells/well) were cultured and incubated in 96-well plates for 24 h. The samples were prepared in DMSO at different concentrations ([…]). The cells were then treated with samples in DMEM medium (10% FBS, […] streptomycin, and 100 IU/mL penicillin at 37 °C in a 5% CO2) for 24 h. The medium was then removed and each well was filled with fresh DMEM containing 0.5 mg/mL MTT solution for 4 h at 37 °C in a 5% CO2. After that, the medium was removed, and the formazan precipitate was dissolved in DMSO [21]. The absorbance was measured at 550 nm on a microplate reader. All processes were performed in triplicate.

RAW 264.7 cells = experiment: cytotoxicity / cell viability MTT assay; format: cell-based
Experimental: as §1

[3] = Mus musculus, RAW264.7, LPS 1 µg/mL, 24 h
[4] = read-out: α-Glucosidase Inhibitory Activity IC50

T1 sequence (P53341 whole entry): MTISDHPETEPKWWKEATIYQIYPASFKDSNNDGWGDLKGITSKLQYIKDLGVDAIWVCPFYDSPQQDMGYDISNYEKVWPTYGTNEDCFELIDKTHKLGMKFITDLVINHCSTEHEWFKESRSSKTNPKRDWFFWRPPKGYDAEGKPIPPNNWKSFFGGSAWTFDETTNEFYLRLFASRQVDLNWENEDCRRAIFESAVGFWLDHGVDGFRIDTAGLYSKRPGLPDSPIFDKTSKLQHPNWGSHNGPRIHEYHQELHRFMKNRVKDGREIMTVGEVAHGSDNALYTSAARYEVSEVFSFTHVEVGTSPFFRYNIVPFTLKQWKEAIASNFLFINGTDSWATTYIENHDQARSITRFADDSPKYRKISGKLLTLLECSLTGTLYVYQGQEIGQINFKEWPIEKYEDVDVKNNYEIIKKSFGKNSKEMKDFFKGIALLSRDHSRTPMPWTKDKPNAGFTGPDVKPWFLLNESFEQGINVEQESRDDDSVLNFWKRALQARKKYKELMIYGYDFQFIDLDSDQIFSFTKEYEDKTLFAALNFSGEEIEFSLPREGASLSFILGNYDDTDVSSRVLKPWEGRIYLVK

| Compound | IC50 (α-glucosidase) [µM] | inhibition at 200 µg/mL (α-glucosidase) [%] | Anti-Inflammatory (NO Production Inhibitory Activity) IC50 ([1]; LPS 1 µg/mL, 24 h) | inhibition at 50 µg/mL [1, 3] [%] | NO production inhibitory activity (in words) [1] | viability at 24 h, 50 µg/mL [2] [%] | cytotoxicity against RAW 264.7 cells at 50 µg/mL (in words) (RAW 264.7 cells) | IC50 (α-glucosidase; [4]) [µM] | IC50 ([1]; Mus musculus, RAW264.7, LPS 1 µg/mL, 24 h, read-out: Anti-Inflammatory (NO Production Inhibitory Activity) IC50) [µM] |
| --- | --- | --- | --- | --- | --- | --- | --- | --- | --- |
| COC(=O)C[C@@]12OC(=O)C[C@@H](C)[C@@H]1Oc1cccc(O)c1C2=O (relative stereo) [Compound 1, Daldiniaeschsone A] | 160 ± 110 | 98.7 | inactive | 26.5 | no NO production inhibitory activities | > 75 | without toxicity; also recorded: no cytotoxicity | – | – |
| C[C@H]1O[C@H](O[C@H]2[C@H](O)[C@@H](O)[C@@H](O[C@H]3[C@H](O)[C@@H](O)C(O)O[C@@H]3CO)O[C@@H]2CO)[C@H](O)[C@@H](O)[C@@H]1N[C@H]1C=C(CO)[C@@H](O)[C@H](O)[C@H]1O (some centres unmarked) [Acarbose, reference compound] | – | 95.6 | – | – | – | – | – | – | – |
| COC(=O)C[C@@]12OC(=O)C[C@@H](C)[C@@H]1Oc1ccc(-c3ccc4c(c3O)C(=O)[C@]3(CC(=O)OC)OC(=O)C[C@@H](C)[C@@H]3O4)c(O)c1C2=O [Compound 2, Daldiniaeschsone B] | 230 | 96.8 | inactive | 36.9 | no NO production inhibitory activities | – | without toxicity; also recorded: no cytotoxicity | – | – |
| O=C1CC[C@H](O)c2cccc(O)c21 [Compound 3, (+)-regiolone] | – | 97.8 | – | – | – | – | – | 850 ± 1190 | – |
| O=C1C[C@@H](O)[C@@H](O)c2cccc(O)c21 [Compound 4, (+)-3,4-dihydro-3,4,8-trihydroxy-1(2H)-naphthalenone] | – | 97.8 | – | – | – | – | – | 550 ± 1330 | – |
| C[C@H]1Cc2cccc(O)c2C(=O)O1 [Compound 5, (+)-mellein] | – | 97.5 | – | – | – | – | – | 760 ± 90 | – |
| COc1ccc2c(c1)c(CC(=O)O)c(C)n2C(=O)c1ccc(Cl)cc1 [Indomethacin, reference compound] | – | – | – | 71 | – | 85 ± 2.92 | – | – | 19.6 ± 0.62 |
